Assay results published in patent US20070161637A1, “Substituted pyridin-2-ylamine analogues” (Neurogen Corporation, priority 2003, published 2007).

Biological target: T1, human capsaicin receptor (Homo sapiens, UniProt Q8NER1)
T1 construct: transfected with the pBK-CMV expression construct encoding the full length human capsaicin receptor; expressed in transfected cells; host or cells: HEK293, stably transfected clonal lines, plasmid pBK-CMV
Assay: Calcium mobilization assay, capsaicin agonist response (Example 6)
Assay type: cell-based
Settings: capsaicin positive control, cells expressing human capsaicin receptor; read-out: approximate EC90 concentration
Protocol: Cells transfected with expression plasmids (as described in Example 4) and thereby expressing human capsaicin receptor are seeded and grown to 70-90% confluency in FALCON black-walled, clear-bottomed 96-well plates (#3904, BECTON-DICKINSON, Franklin Lakes, N.J.). The culture medium is emptied from the 96 well plates and FLUO-3 AM calcium sensitive dye (Molecular Probes, Eugene, Oreg.) is added to each well (dye solution: 1 mg FLUO-3 AM, 440 μL DMSO and 440 μl 20% pluronic acid in DMSO, diluted 1:250 in Krebs-Ringer HEPES (KRH) buffer (25 mM HEPES, 5 mM KCl, 0.96 mM NaH2PO4, 1 mM MgSO4, 2 mM CaCl2, 5 mM glucose, 1 mM probenecid, pH 7.4), 50 μl diluted solution per well). […]
To measure the ability of a test compound to agonize or antagonize a calcium mobilization response in cells expressing capsaicin receptors to capsaicin or other vanilloid agonist, the EC50 of the agonist capsaicin is first determined. […] Capsaicin-induced calcium mobilization is monitored using either FLUOROSKAN ASCENT (Labsystems; Franklin, Mass.) or FLIPR (fluorometric imaging plate reader system; Molecular Devices, Sunnyvale, Calif.) instruments. […] In this equation, y is the maximum fluorescence signal, x is the concentration of the agonist or antagonist (in this case, capsaicin), a is the Emax, b corresponds to the EC50 value and c is the Hill coefficient. […]

T1 sequence (Q8NER1 whole entry): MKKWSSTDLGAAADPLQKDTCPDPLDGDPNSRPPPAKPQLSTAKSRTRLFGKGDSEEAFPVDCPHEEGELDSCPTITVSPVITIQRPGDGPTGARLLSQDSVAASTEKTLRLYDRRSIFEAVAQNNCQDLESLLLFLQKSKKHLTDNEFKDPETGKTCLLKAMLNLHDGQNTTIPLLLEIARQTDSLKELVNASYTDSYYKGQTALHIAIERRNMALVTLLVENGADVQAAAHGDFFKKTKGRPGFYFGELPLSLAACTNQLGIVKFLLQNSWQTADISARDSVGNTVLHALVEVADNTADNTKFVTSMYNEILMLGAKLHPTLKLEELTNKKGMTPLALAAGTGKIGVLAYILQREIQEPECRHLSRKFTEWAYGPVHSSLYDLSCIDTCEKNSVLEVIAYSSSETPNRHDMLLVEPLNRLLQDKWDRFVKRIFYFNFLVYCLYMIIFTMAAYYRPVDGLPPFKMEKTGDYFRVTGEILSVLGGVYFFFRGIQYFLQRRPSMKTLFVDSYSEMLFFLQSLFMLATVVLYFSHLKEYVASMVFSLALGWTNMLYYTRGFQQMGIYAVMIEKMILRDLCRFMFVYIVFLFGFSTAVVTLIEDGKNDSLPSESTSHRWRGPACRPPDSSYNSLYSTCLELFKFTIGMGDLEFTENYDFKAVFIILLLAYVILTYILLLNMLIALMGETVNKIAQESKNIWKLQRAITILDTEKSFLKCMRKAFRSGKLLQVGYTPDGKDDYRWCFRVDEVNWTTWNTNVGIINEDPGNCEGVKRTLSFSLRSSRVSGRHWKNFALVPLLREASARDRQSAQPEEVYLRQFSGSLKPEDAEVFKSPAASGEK

EC90 [nM]	Structure (SMILES)
~100	COc1cc(CNC(=O)CCCC/C=C/C(C)C)ccc1O [capsaicin]

Biological target: T1, human capsaicin receptor
Assay: Calcium mobilization assay, determination of antagonist activity (Example 6)
Assay type: cell-based
Settings: concentration giving 50% decrease in the fluorescence response of cells expressing human capsaicin receptor exposed to capsaicin
Protocol: A cDNA encoding full length human capsaicin receptor (SEQ ID NO:1, 2 or 3 of U.S. Pat. No. 6,482,611) was subcloned in the plasmid pBK-CMV (Stratagene, La Jolla, Calif.) for recombinant expression in mammalian cells.
Human embryonic kidney (HEK293) cells were transfected with the pBK-CMV expression construct encoding the full length human capsaicin receptor using standard methods. The transfected cells were selected for two weeks in media containing G418 (400 μg/ml) to obtain a pool of stably transfected cells. Independent clones were isolated from this pool by limiting dilution to obtain clonal stable cell lines for use in subsequent experiments.
Cells transfected with expression plasmids (as described in Example 4) and thereby expressing human capsaicin receptor are seeded and grown to 70-90% confluency in FALCON black-walled, clear-bottomed 96-well plates (#3904, BECTON-DICKINSON, Franklin Lakes, N.J.). The culture medium is emptied from the 96 well plates and FLUO-3 AM calcium sensitive dye (Molecular Probes, Eugene, Oreg.) is added to each well (dye solution: 1 mg FLUO-3 AM, 440 μL DMSO and 440 μl 20% pluronic acid in DMSO, diluted 1:250 in Krebs-Ringer HEPES (KRH) buffer (25 mM HEPES, 5 mM KCl, 0.96 mM NaH2PO4, 1 mM MgSO4, 2 mM CaCl2, 5 mM glucose, 1 mM probenecid, pH 7.4), 50 μl diluted solution per well). Plates are covered with aluminum foil and incubated at 37° C. for 1-2 hours in an environment containing 5% CO2. After the incubation, the dye is emptied from the plates, and the cells are washed once with KRH buffer, and resuspended in KRH buffer.
To measure the ability of a test compound to agonize or antagonize a calcium mobilization response in cells expressing capsaicin receptors to capsaicin or other vanilloid agonist, the EC50 of the agonist capsaicin is first determined. An additional 20 μl of KRH buffer and 1 μl DMSO is added to each well of cells, prepared as described above. 100 μl capsaicin in KRH buffer is automatically transferred by the FLIPR instrument to each well. Capsaicin-induced calcium mobilization is monitored using either FLUOROSKAN ASCENT (Labsystems; Franklin, Mass.) or FLIPR (fluorometric imaging plate reader system; Molecular Devices, Sunnyvale, Calif.) instruments. Data obtained between 30 and 60 seconds after agonist application are used to generate an 8-point concentration response curve, with final capsaicin concentrations of 1 nM to 3 μM. […] software (Synergy Software, Reading, Pa.) is used to fit the data to the equation: y=a*(1/(1+(b/x)^c)) to determine the 50% excitatory concentration (EC50) for the response. In this equation, y is the maximum fluorescence signal, x is the concentration of the agonist or antagonist (in this case, capsaicin), a is the Emax, b corresponds to the EC50 value and c is the Hill coefficient. Determination Agonist Activity
Test compounds are dissolved in DMSO, diluted in 20 μl KRH buffer so that the final concentration of test compounds in the assay well is between 1 μM and 5 μM, and added to cells prepared as described above. The 96 well plates containing prepared cells and test compounds are incubated in the dark, at room temperature for 0.5 to 6 hours. It is important that the incubation not continue beyond 6 hours. Just prior to determining the fluorescence response, 100 μl capsaicin in KRH buffer at twice the EC50 concentration determined as described above is automatically added by the FLIPR instrument to each well of the 96 well plate for a final sample volume of 200 μl and a final capsaicin concentration equal to the EC50. The final concentration of test compounds in the assay wells is between 1 μM and 5 μM.

IC50 [nM]	Structure (SMILES)
≤ 1000	COc1nc(NCc2ccccc2Cl)nc(Nc2ccc(C(C)(C)C)cc2)n1 [Compound 39, N-(4-tert-Butyl-phenyl)-N′-(2-chloro-benzyl)-6-methoxy-[1,3,5]triazine-2,4-diamine]
≤ 1000	CC(C)(C)c1ccc(Nc2cc(NCc3ccccc3C(F)(F)F)ncn2)cc1 [Compound 49, N-(4-tert-Butyl-phenyl)-N′-(2-trifluoromethyl-benzyl)-pyrimidine-4,6-diamine]
≤ 1000	CC(C)(C)c1ccc(Nc2nc(N)nc(NCc3ccccc3Cl)n2)cc1 [Compound 37, N-(4-tert-Butyl-phenyl)-N′-(2-chloro-benzyl)-[1,3,5]triazine-2,4,6-triamine]
≤ 1000	COc1ccccc1CNc1nc(N)nc(Nc2ccc(C(C)(C)C)cc2)n1 [Compound 46, N-(4-tert-Butyl-phenyl)-N′-(2-methoxy-benzyl)-[1,3,5]triazine-2,4,6-triamine]
≤ 1000	CC(C)(C)c1ccc(Nc2cc(NCc3ccccc3Cl)ncn2)cc1 [Compound 42, N-(4-tert-Butyl-phenyl)-N′-(2-chloro-benzyl)-pyrimidine-4,6-diamine]
